Key:
[1] = target: T1, AtSDT (Arabidopsis thaliana, UniProt O80467); test: LC-MS product assay; format: biochemical; settings: 60 µM acyl donor, 200 µM spermidine, pH 7.5, 30 °C, 30 min
T1 construct: gene SDT; wild type in pET28a (NdeI/XhoI), E. coli BL21(DE3), Ni-NTA and gel filtration
T1 sequence (O80467 1-451): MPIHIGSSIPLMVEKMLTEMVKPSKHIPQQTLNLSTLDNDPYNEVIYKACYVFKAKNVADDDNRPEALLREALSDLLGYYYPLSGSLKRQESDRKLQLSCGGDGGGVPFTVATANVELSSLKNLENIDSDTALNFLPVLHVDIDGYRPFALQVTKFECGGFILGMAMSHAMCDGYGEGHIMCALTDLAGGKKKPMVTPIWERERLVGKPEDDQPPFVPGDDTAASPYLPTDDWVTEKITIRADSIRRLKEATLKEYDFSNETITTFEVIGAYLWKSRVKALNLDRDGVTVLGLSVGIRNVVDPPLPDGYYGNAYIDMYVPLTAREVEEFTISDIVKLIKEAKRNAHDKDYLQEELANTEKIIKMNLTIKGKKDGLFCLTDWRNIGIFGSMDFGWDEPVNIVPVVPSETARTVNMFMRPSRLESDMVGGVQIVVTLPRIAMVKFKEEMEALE

[2] = target: T2, OAO95042.1 (Arabidopsis thaliana, UniProt F4K5C5); test: HPLC-MS product assay; format: biochemical; settings: 200 µM putrescine, 60 µM caffeoyl-CoA, pH 7.5, 30 °C, 30 min
T2 construct: gene At5g07080; wild type in pET28a (NdeI/XhoI), E. coli BL21(DE3), Ni-NTA and gel filtration
T2 sequence (F4K5C5 1-450): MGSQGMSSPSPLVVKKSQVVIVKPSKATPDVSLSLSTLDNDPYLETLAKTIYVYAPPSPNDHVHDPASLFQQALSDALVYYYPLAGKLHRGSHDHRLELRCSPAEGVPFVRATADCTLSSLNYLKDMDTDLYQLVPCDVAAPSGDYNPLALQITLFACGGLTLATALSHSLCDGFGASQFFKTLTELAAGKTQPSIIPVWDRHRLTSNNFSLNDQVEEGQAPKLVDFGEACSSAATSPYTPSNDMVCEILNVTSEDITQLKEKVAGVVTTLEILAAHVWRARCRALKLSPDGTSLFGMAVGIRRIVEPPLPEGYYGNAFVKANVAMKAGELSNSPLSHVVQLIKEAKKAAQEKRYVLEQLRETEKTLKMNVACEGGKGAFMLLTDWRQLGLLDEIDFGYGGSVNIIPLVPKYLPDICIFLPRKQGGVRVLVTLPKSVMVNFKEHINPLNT

[3] = target: T3, NP_190301.2 (Arabidopsis thaliana, UniProt F4JAD2); test: HPLC-MS product assay; format: biochemical; settings: 200 µM putrescine, pH 7.5, 30 °C, 30 min
T3 construct: gene At3g47170; wild type in pET28a (NdeI/XhoI), E. coli BL21(DE3), Ni-NTA and gel filtration
T3 sequence (F4JAD2 1-468): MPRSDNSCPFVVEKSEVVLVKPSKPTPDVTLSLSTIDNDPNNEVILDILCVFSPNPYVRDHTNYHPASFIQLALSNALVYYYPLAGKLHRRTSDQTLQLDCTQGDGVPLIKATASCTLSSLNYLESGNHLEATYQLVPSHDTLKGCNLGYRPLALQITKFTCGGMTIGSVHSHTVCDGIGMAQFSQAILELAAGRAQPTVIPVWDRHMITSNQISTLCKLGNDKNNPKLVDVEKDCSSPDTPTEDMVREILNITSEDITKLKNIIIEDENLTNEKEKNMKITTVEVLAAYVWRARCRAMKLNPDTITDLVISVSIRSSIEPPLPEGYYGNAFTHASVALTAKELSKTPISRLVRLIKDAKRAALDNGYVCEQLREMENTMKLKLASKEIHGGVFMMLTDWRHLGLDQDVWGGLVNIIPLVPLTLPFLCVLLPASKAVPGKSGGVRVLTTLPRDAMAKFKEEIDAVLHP

[4] = target: T4, AtSHT (Arabidopsis thaliana, UniProt O64470); test: X-ray crystal structure; format: binding; settings: co-crystallised with spermidine and CoA; 2.3 Å; active site near His155
T4 construct: gene SHT; wild type in pET28a (NdeI/XhoI), E. coli BL21(DE3), Ni-NTA and gel filtration; model residues 1-451
T4 sequence (O64470 1-451): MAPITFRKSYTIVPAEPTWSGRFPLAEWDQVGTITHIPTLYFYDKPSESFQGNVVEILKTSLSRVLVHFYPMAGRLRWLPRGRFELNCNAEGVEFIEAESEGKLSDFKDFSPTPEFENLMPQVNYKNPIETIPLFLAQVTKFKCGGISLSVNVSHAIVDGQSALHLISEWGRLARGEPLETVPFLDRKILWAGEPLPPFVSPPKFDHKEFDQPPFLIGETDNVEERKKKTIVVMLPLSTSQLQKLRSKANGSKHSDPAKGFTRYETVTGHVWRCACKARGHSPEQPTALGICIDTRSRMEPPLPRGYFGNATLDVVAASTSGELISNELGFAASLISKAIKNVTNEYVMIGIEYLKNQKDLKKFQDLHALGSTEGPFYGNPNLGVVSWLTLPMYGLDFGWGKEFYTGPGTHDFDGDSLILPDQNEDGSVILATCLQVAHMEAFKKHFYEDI

[5] = target: T1, AtSDT; test: LC-MS product assay; X-ray crystal structure; format: biochemical; settings: 200 µM spermidine, 60 µM sinapoyl-CoA, pH 7.5, 30 °C, 30 min; ligand in crystal only possible electron density, pose docked
[6] = target: T4, AtSHT; test: LC-MS product assay; X-ray crystal structure; format: biochemical; settings: 200 µM spermidine, 60 µM feruloyl-CoA, pH 7.5, 30 °C, 30 min; ligand in crystal only possible electron density, pose docked
[7] = target: T4, AtSHT; test: LC-MS product assay; format: biochemical; settings: 60 µM acyl donor, 200 µM spermidine, pH 7.5, 30 °C, 30 min

COc1cc(/C=C/C(=O)SCCNC(=O)CCNC(=O)[C@H](O)C(C)(C)COP(=O)(O)OP(=O)(O)OC[C@H]2O[C@@H](n3cnc4c(N)ncnc43)[C@H](O)[C@@H]2OP(=O)(O)O)cc(OC)c1O [sinapoyl-CoA]
LC-MS product assay [1]: wild-type AtSDT can efficiently couple spermidine with sinapoyl CoA to yield monosinapoyl

NCCCCN [putrescine]
HPLC-MS product assay [2]: encoded enzymes that could efficiently convert putrescine and caffeoyl-CoA to di-caffeoyl putrescine | HPLC-MS product assay ([3]; 60 µM caffeoyl-CoA): encoded enzymes that could efficiently convert putrescine and caffeoyl-CoA to di-caffeoyl putrescine

CC(C)(COP(=O)(O)OP(=O)(O)OC[C@H]1O[C@@H](n2cnc3c(N)ncnc32)[C@H](O)[C@@H]1OP(=O)(O)O)[C@@H](O)C(=O)NCCC(=O)NCCS [CoA-HS]
X-ray crystal structure [4]: The extra density near His155 was determined as CoA-HS

NCCCCNCCCN [spermidine]
LC-MS product assay; X-ray crystal structure [5]: wild-type AtSDT can efficiently couple spermidine with sinapoyl CoA to yield monosinapoyl | LC-MS product assay; X-ray crystal structure [6]: wild-type AtSHT can efficiently convert spermidine and feruloyl-CoA to monoferuloyl spermidine

COc1cc(/C=C/C(=O)SCCNC(=O)CCNC(=O)[C@H](O)C(C)(C)COP(=O)(O)OP(=O)(O)OC[C@H]2O[C@@H](n3cnc4c(N)ncnc43)[C@H](O)[C@@H]2OP(=O)(O)O)ccc1O [feruloyl-CoA]
LC-MS product assay [7]: wild-type AtSHT can efficiently convert spermidine and feruloyl-CoA to monoferuloyl spermidine

CC(C)(COP(=O)(O)OP(=O)(O)OC[C@H]1O[C@@H](n2cnc3c(N)ncnc32)[C@H](O)[C@@H]1OP(=O)(O)O)[C@@H](O)C(=O)NCCC(=O)NCCSC(=O)/C=C/c1ccc(O)c(O)c1 [caffeoyl-CoA]
HPLC-MS product assay ([3]; 60 µM acyl donor): encoded enzymes that could efficiently convert putrescine and caffeoyl-CoA to di-caffeoyl putrescine

Reference: paper PMC7838080, “Structural and Biochemical Insights Into Two BAHD Acyltransferases (AtSHT and AtSDT) Involved in Phenolamide Biosynthesis” (Frontiers in Plant Science, 2021)
